According to patent publication US7851505B2, “Thiotungstate analogues and uses thereof” (priority 2003, dated 2010):
Where “and” joins values, the source holds several entries; their conditions need not be identical. Equal entries are not always repeated. Where two headings read alike, the source gives them in different places.

Tests used:
[1] = Copper-binding ability: inhibition of cysteine autooxidation; assay type: biochemical; conditions: 100 μM Cys, 100 μM coumarin-3-carboxylic acid, 100 μM CuSO4
Experimental: The copper-binding ability of tetrathiotungstate salts was determined according to the ability of tetrathiotungstate salts to inhibit cysteine autooxidation as reported in Table 2 below.

[2] = Moisture stability of tetrathiotungstate salts; assay type: physicochemical
angiogenesis = experiment: Matrigel plug assay (inhibition of angiogenesis); assay type: in vivo, athymic nude mice; conditions: FIG. 1
Experimental: This assay is performed essentially as described by Passaniti et al., Lab Invest. 1992, 67:519-528. Ice-cold Matrigel® (e.g., 500 μL) (Collaborative Biomedical Products, Inc., Bedford, Mass.) is mixed with heparin (e.g., 50 μg/ml), FGF-2 (e.g., 400 ng/ml) and the compound to be tested. In some assays, bFGF may be substituted with tumor cells as the angiogenic stimulus. The Matrigel® mixture is injected subcutaneously into 4-8 week-old athymic nude mice at sites near the abdominal midline, preferably 3 injections per mouse. The injected Matrigel®b forms a palpable solid gel. […] Hemoglobin (Hb) levels are determined using Drabkin's solution (e.g., obtained from Sigma) according to the manufacturers' instructions. […] The amount of fluorescence in the dispersed plug which is determined fluorimetrically serves as a measure of angiogenesis in the plug. […]
Ammonium tetrathiotungstate was assayed in the Matrigel® plug assay as described in Section 5.4.7, supra. Two positive controls were used with positive control 1 measured five days after implantation when treatment began and […] measured five days after implantation when treatment ended. Two negative controls were used with negative control 1 measured five days after implantation when treatment began and […] measured five days after implantation when treatment ended.

[3] = room temperature, 95% relative humidity, two weeks, purity by absorbance, * = partially soluble, ‡ = average of 2 data points

With `NCCNCCNCCN` [trientine, reference compound] as the compound, how does the “% inhibition” value ([1]; inhibitor concentration 1 μM) read?
Its value is 0.00%.

And the “% inhibition” value ([1]; inhibitor concentration 50 μM)?
Its value is 39.71%.

What does the source list for “Tetrathiotungstate, propane-1,3-bis(trimethylammonium)”?
% inhibition ([1]; inhibitor concentration 10 μM): 85.53%; % inhibition ([1]; inhibitor concentration 50 μM): 92.95%

For `C[N+](C)(C)CCOC(=O)CCCCCCC(=O)OCC[N+](C)(C)C.[S]=[W](=[S])([S-])[S-]` [Tetrathiotungstate, suberyldicholine], which “% degradation” value [2, 3] is on record?
The value was 18.4* %.

What about the “% inhibition” value ([1]; inhibitor concentration 1 μM) of the same compound?
Its value is 67.74%.

What about the “% inhibition” value ([1]; inhibitor concentration 10 μM) of the same compound?
The value was 77.83%.

With `C[N+](C)(C)c1ccccc1.C[N+](C)(C)c1ccccc1.[S]=[W](=[S])([S-])[S-]` [Tetrathiotungstate, bis(trimethylphenylammonium)] as the compound, how does the “% degradation” value [2, 3] read?
The value was −0.46%.

What about the “% inhibition” value ([1]; inhibitor concentration 50 μM) of the same compound?
The value was 91.53%.

For `[NH4+].[NH4+].[SH-].[SH-].[S]=[Mo]=[S]` [Tetrathiomolybdate, bis(ammonium), reference compound], which “% inhibition” value ([1]; inhibitor concentration 1 μM) is on record?
The value was 68.48%.

What about the “% inhibition” value ([1]; inhibitor concentration 10 μM) of the same compound?
Its value is 87.71% and 76.69%.

What about the “% inhibition” value ([1]; inhibitor concentration 50 μM) of the same compound?
Its value is 94.24%.

Which results are given for “Tetrathiotungstate, butane-1,4-bis(trimethylammonium)”?
% inhibition ([1]; inhibitor concentration 10 μM): 87.32%; % inhibition ([1]; inhibitor concentration 50 μM): 91.75%

Which “% degradation” value [2, 3] does the source give for “Tetrathiotungstate, bis(ammonium) [reference compound]” here?
Its value is −0.46%.

And the “% inhibition” value ([1]; inhibitor concentration 50 μM)?
Its value is 95.94%.

And the inhibition of angiogenesis (angiogenesis)?
Its inhibition of angiogenesis is “about 34%”.

For `CC(=O)OCC[N+](C)(C)C.CC(=O)OCC[N+](C)(C)C.[S]=[W](=[S])([S-])[S-]` [Tetrathiotungstate, bis(acetylcholine)], which “% degradation” value [2] is on record?
Its value is 2.4%.

What about the “% inhibition” value ([1]; inhibitor concentration 50 μM) of the same compound?
Its value is 90.36%.

With `C[n+]1ccccc1C=NO.C[n+]1ccccc1C=NO.[S]=[W](=[S])([S-])[S-]` [Tetrathiotungstate, bis(2-hydroxyiminomethyl-1-methyl-pyridinium)] as the compound, how does the “% degradation” value [2, 3] read?
The value was 5.6%.

What about the “% inhibition” value ([1]; inhibitor concentration 50 μM) of the same compound?
The value was 91.15%.

Which results are given for `CC[N+](CC)(CC)c1ccccc1.CC[N+](CC)(CC)c1ccccc1.[S]=[W](=[S])([S-])[S-]` [Tetrathiotungstate, bis(triethylphenyl ammonium)]?
% degradation [2, 3]: −0.12%; % inhibition ([1]; inhibitor concentration 50 μM): 91.32%

With `CC(=O)OC(C)C[N+](C)(C)C.CC(=O)OC(C)C[N+](C)(C)C.[S]=[W](=[S])([S-])[S-]` (stereo not drawn) [Tetrathiotungstate, bis(acetyl-β-methylcholine)] as the compound, how does the “% degradation” value [2, 3] read?
Its value is 4.2%.

What about the “% inhibition” value ([1]; inhibitor concentration 50 μM) of the same compound?
Its value is 90.40%.

Which “% degradation” value [2, 3] does the source give for `C[N+]1(C)CCCC1.C[N+]1(C)CCCC1.[S]=[W](=[S])([S-])[S-]` [Tetrathiotungstate, bis(1,1-dimethylpyrrolidinium)] here?
Its value is 0.04%.

For `Cc1cc[n+](C)cc1.Cc1cc[n+](C)cc1.[S]=[W](=[S])([S-])[S-]` [Tetrathiotungstate, bis(1,4-dimethylpyridinium)], which “% degradation” value [2, 3] is on record?
Its value is 2.0%.

What about the “% inhibition” value ([1]; inhibitor concentration 50 μM) of the same compound?
Its value is 89.98% and 89.66%.

For “Tetrathiotungstate, pentane-1,5-bis(trimethylammonium)”, which “% inhibition” value ([1]; inhibitor concentration 50 μM) is on record?
The value was 90.69%.

Which “% degradation” value [2, 3] does the source give for `C[N+](C)(C)Cc1ccccc1.C[N+](C)(C)Cc1ccccc1.[S]=[W](=[S])([S-])[S-]` [Tetrathiotungstate, bis(benzzyltrimethylammonium)] here?
The value was 0.41%.

And the “% inhibition” value ([1]; inhibitor concentration 50 μM)?
Its value is 94.62%.

Which “% degradation” value [2, 3] does the source give for Tetrathiotungstate, (succinylcholine) here?
Its value is 23.3* %.

What about the “% inhibition” value ([1]; inhibitor concentration 1 μM) of the same compound?
The value was 66.06%.

And the “% inhibition” value ([1]; inhibitor concentration 10 μM)?
Its value is 81.38%.

With `CCn1cc[n+](C)c1.CCn1cc[n+](C)c1.[S]=[W](=[S])([S-])[S-]` [Tetrathiotungstate, bis(l-ethyl-3-methyl-1H-imidazolium)] as the compound, how does the “% degradation” value [2, 3] read?
Its value is 1.3%.

What about the “% inhibition” value ([1]; inhibitor concentration 50 μM) of the same compound?
Its value is 91.16%.

Which “% degradation” value [2] does the source give for `C[N+](C)(C)CCO.C[N+](C)(C)CCO.[S]=[W](=[S])([S-])[S-]` [Tetrathiotungstate, bis(choline)] here?
Its value is 3.0%.

And the “% inhibition” value ([1]; inhibitor concentration 50 μM)?
The value was 92.54% and 91.99%.

For `C[N+](C)(C)CCO.C[N+](C)(C)CCO.[S]=[Mo](=[S])([S-])[S-]` [Tetrathiomolybdate, bis (choline), reference compound], which “% degradation” value [2] is on record?
Its value is 36 ± 2%.

With “Tetrathiotungstate, ethylenebis(trimethylammonium)” as the compound, how does the “% degradation” value [2, 3] read?
The value was 8.6* %.

What about the “% inhibition” value ([1]; inhibitor concentration 10 μM) of the same compound?
Its value is 84.66%.

And the “% inhibition” value ([1]; inhibitor concentration 50 μM)?
Its value is 89.60%.
